The values below come from patent publication US10168342B2, “Lipid probes and uses thereof” (THE SCRIPPS RESEARCH INSTITUTE, priority 2015, dated 2019).

Read-outs that look alike come from different tables or passages of the source.

In test [1] the target is T1, AEA-DA lipid probe targets in Neuro2a cells (Mus musculus, UniProt P09103).
T1 sequence (P09103 20-509): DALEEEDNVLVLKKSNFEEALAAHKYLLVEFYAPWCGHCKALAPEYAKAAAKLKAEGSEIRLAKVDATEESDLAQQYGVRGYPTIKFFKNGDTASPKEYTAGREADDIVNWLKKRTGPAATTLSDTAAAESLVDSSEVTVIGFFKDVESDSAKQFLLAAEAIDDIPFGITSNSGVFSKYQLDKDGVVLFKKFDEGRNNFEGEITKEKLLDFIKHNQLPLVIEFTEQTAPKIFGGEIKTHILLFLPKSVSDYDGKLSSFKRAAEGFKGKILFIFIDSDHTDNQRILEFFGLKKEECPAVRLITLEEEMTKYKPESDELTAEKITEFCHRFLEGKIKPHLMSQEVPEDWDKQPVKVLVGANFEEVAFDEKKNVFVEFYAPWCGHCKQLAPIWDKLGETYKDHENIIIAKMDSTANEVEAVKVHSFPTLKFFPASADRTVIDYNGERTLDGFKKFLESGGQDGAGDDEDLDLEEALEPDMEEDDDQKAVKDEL

Test [2] has as its target T2, AEA-DA lipid probe targets in Neuro2a cells (Mus musculus, UniProt Q3UEB3).
T2 sequence (Q3UEB3 1-564): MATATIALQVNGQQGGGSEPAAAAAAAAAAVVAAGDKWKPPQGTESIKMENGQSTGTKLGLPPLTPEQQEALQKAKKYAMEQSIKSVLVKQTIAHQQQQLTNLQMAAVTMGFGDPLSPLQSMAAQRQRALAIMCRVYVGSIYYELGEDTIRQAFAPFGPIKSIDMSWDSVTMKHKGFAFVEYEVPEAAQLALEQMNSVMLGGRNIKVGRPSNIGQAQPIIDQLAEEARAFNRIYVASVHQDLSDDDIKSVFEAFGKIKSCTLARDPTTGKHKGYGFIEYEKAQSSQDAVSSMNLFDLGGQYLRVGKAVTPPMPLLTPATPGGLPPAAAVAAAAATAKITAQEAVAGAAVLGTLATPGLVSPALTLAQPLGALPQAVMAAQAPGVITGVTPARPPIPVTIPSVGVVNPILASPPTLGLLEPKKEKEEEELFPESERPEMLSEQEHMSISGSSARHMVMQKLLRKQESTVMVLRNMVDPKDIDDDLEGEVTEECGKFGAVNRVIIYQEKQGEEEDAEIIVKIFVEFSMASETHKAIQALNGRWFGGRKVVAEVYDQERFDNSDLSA

The target in test [3] is T3, AEA-DA lipid probe targets in Neuro2a cells (Mus musculus, UniProt Q5XJY4).
T3 sequence (Q5XJY4 51-377): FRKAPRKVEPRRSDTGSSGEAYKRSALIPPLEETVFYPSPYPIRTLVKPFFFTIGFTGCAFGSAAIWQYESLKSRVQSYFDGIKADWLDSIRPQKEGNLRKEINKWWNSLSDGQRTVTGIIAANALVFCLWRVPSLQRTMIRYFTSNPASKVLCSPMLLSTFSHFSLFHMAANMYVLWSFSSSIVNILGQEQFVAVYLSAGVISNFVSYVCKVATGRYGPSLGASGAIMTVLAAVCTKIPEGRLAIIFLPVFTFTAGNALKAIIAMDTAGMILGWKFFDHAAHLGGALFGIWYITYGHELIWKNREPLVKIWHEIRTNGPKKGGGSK

In test [4] the target is AEA-DA lipid probe targets in Neuro2a cells (Mus musculus, UniProt Q60716).
In test [5] the target is AEA-DA lipid probe targets in Neuro2a cells (Mus musculus, UniProt Q8VDD5).
In test [6] the target is T4, AEA-DA lipid probe targets in Neuro2a cells (Mus musculus, UniProt Q9CPQ8).
T4 sequence (Q9CPQ8 1-103): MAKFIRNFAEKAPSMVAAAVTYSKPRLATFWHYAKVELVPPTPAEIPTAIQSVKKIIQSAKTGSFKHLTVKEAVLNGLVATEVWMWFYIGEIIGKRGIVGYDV

For test [7], the target named is T5, AEA-DA lipid probe targets in Neuro2a cells (Mus musculus, UniProt Q9D024).
T5 sequence (Q9D024 21-483): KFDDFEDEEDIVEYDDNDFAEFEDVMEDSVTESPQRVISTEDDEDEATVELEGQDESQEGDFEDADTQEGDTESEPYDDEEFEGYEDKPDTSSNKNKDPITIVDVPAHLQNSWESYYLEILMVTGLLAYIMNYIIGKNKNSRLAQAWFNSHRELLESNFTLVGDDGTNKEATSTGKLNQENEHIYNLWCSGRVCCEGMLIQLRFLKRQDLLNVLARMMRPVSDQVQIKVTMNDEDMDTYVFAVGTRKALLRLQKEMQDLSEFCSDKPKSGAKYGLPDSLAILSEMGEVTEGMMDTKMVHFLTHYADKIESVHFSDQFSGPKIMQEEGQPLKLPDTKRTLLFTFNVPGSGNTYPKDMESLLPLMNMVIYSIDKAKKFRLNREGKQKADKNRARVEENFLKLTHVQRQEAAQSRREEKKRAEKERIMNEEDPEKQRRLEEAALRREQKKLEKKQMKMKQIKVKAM

For test [8], the target named is T6, AEA-DA lipid probe targets in Neuro2a cells (Mus musculus, UniProt Q8JZN5).
T6 sequence (Q8JZN5 42-625): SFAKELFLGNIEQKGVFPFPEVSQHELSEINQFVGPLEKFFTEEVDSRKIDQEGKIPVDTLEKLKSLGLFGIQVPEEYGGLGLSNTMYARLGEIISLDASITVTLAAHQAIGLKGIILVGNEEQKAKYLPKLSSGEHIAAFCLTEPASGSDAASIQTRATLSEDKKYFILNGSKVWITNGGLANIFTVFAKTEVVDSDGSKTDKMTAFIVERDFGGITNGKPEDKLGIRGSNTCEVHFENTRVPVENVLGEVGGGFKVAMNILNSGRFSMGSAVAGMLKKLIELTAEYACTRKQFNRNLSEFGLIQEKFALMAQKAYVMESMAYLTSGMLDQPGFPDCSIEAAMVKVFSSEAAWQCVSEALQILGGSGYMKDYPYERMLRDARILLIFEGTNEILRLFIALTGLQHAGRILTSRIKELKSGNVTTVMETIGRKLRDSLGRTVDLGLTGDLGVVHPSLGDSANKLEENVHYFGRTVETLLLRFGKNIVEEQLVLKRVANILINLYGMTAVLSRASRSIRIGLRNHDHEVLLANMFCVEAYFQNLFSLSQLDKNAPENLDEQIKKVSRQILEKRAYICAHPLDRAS

Sequence of AEA-DA lipid probe targets in Neuro2a cells (Mus musculus, UniProt Q60716) (Q60716 24-537): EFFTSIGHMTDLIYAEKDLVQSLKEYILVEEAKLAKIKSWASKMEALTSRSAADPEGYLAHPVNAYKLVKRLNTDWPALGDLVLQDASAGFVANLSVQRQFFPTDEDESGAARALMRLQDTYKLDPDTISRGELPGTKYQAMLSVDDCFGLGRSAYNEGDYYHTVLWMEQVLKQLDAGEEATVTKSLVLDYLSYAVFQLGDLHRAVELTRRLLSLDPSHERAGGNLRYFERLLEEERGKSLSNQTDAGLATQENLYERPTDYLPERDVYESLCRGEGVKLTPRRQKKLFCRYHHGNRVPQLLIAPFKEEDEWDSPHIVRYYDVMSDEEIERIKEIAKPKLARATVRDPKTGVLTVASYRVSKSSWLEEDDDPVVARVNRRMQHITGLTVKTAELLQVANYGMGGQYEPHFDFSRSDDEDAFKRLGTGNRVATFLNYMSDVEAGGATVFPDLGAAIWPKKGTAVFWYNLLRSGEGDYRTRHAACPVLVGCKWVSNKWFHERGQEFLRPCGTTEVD
Sequence of AEA-DA lipid probe targets in Neuro2a cells (Mus musculus, UniProt Q8VDD5) (Q8VDD5 whole entry): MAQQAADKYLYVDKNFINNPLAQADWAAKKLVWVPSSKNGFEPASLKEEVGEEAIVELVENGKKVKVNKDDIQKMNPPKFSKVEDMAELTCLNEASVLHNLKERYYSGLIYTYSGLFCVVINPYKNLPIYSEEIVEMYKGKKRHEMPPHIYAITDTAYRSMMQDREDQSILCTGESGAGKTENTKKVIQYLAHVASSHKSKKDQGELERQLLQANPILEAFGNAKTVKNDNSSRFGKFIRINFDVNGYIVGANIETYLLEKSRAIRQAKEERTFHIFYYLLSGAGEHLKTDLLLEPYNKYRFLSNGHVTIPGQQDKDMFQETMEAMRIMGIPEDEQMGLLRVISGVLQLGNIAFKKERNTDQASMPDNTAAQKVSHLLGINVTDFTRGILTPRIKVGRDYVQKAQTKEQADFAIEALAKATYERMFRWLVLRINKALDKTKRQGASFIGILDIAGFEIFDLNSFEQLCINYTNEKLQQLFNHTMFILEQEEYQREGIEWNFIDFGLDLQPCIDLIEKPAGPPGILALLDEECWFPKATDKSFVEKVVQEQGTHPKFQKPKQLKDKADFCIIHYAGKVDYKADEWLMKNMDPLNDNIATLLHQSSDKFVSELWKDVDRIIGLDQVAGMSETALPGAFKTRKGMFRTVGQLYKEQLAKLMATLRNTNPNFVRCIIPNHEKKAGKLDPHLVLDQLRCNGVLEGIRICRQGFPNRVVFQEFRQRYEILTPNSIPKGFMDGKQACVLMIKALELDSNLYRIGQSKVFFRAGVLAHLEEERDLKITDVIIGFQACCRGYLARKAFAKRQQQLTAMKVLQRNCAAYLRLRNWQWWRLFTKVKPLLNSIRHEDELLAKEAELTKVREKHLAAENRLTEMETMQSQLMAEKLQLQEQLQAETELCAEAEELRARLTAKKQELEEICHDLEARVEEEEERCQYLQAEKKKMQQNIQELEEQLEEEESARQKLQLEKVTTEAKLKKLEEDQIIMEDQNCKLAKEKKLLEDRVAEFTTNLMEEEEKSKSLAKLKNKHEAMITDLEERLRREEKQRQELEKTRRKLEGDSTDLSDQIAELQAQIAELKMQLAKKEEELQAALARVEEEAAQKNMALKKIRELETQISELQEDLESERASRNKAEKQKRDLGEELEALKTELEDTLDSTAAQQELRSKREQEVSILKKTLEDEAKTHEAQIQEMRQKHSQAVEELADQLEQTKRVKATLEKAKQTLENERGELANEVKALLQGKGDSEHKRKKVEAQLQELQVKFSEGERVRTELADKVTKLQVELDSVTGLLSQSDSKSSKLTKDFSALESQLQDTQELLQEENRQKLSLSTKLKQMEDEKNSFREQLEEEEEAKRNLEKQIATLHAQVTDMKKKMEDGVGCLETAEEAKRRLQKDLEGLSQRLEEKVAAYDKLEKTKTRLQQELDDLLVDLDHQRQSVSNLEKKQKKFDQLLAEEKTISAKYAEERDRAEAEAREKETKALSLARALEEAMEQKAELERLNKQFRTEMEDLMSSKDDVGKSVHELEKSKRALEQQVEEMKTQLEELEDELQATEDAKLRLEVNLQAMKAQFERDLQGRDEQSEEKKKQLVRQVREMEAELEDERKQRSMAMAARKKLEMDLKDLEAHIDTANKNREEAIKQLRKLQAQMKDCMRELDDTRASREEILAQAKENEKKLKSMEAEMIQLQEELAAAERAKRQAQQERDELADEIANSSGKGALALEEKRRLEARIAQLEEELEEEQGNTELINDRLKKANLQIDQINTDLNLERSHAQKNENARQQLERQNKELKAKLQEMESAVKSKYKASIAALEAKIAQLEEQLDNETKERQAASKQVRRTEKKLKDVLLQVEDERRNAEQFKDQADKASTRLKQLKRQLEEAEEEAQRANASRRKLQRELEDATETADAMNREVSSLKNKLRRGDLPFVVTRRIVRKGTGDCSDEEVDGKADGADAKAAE

`CCCCC/C=C\C/C=C\C/C=C\C/C=C\CCCC(=O)NCCO` [AEA, anandamide, reference compound]: the “SILAC ratio P4hb” value in test [1] (competitor 200 μM) was 1.2. Further, the “SILAC ratio Puf60” value in test [2] (competitor 200 μM) is listed as 1.3. The “SILAC ratio Parl” value in test [3] (competitor 200 μM) is given as 1.3. Also, the “SILAC ratio P4ha2” value in test [4] (competitor 200 μM) is 1.0. For the same compound, the “SILAC ratio Myh9” value in test [5] (competitor 200 μM) turned out to be 1.1. For the same compound, the “SILAC ratio Atp5l” value in test [6] (competitor 200 μM) is on record as 1.3. Moreover, the “SILAC ratio, Ccdc47” value in test [7] (competitor 200 μM) stood at 1.7.
As for `C=CCN(C)CCCCCCOc1ccc(C(=O)c2ccc(Br)cc2)c(F)c1` [Ro 48-8071, reference compound], the “SILAC ratio P4hb” value in test [1] (competitor 25 μM) amounted to 1.0. The “SILAC ratio Puf60” value in test [2] (competitor 25 μM) came to 1.0. In test [3] (competitor 25 μM), the “SILAC ratio Parl” value was 1.1. Further, the “SILAC ratio P4ha2” value in test [4] (competitor 25 μM) is reported as 1.0. In addition, the “SILAC ratio Acad9” value in test [8] (competitor 25 μM) stood at 1.3. Besides, in test [5] (competitor 25 μM), the “SILAC ratio Myh9” value was 1.0. Moreover, the “SILAC ratio Atp5l” value in test [6] (competitor 25 μM) came to 1.0. In test [7] (competitor 25 μM), the “SILAC ratio, Ccdc47” value stood at 1.4.
Regarding `CN1CCN(C(=O)c2c(-c3ccccc3)c3cc([N+](=O)[O-])ccc3n2C)CC1` [KML110, (1-Methyl-5-nitro-3-phenyl-1H-indol-2-yl)(4-methylpiperazin-1-yl)methanone], in test [1] (competitor 25 μM), the “SILAC ratio P4hb” value amounted to 1.8. Moreover, the “SILAC ratio Puf60” value in test [2] (competitor 25 μM) is 1.3. Moreover, the “SILAC ratio Parl” value in test [3] (competitor 25 μM) was found to be 1.3. Further, the “SILAC ratio P4ha2” value in test [4] (competitor 25 μM) was 1.3. Further, the “SILAC ratio Acad9” value in test [8] (competitor 25 μM) amounted to 1.7. Also, in test [5] (competitor 25 μM), the “SILAC ratio Myh9” value was 1.7. Moreover, the “SILAC ratio Atp5l” value in test [6] (competitor 25 μM) is listed as 1.2. Also, the “SILAC ratio, Ccdc47” value in test [7] (competitor 25 μM) is 1.7.
With `O=C(/C=C/c1cccnc1)NCCCCC1CCN(C(=O)c2ccccc2)CC1` [FK-866, reference compound], the “SILAC ratio P4hb” value in test [1] (competitor 25 μM) came out at 1.4. Moreover, the “SILAC ratio Puf60” value in test [2] (competitor 25 μM) is 1.3. In addition, the “SILAC ratio Parl” value in test [3] (competitor 25 μM) is 1.3. In addition, in test [4] (competitor 25 μM), the “SILAC ratio P4ha2” value came to 1.1. The “SILAC ratio Acad9” value in test [8] (competitor 25 μM) was determined as 1.2. Further, in test [5] (competitor 25 μM), the “SILAC ratio Myh9” value is reported as 1.2. Further, in test [6] (competitor 25 μM), the “SILAC ratio Atp5l” value was found to be 1.1. The “SILAC ratio, Ccdc47” value in test [7] (competitor 25 μM) is recorded as 1.3.
`CN1CCN(C(=O)c2[nH]c3ccc([N+](=O)[O-])cc3c2-c2ccccc2)CC1` [MJN228, (4-Methylpiperazin-1-yl)(5-nitro-3-phenyl-1H-indol-2-yl)methanone]: the “SILAC ratio P4hb” value was 1.3 in test [1] (competitor 10 μM), 1.5 in test [1] (competitor 25 μM), 2.0 in test [1] (competitor 50 μM) and 2.2 in test [1] (competitor 100 μM). In addition, the “SILAC ratio Puf60” value in test [2] (competitor 10 μM) is 1.4; in test [2] (competitor 25 μM), 1.2; in test [2] (competitor 50 μM), 1.0; in test [2] (competitor 100 μM) it was 1.2. For the same compound, the “SILAC ratio Parl” value in test [3] (competitor 10 μM) turned out to be 1.3; in test [3] (competitor 25 μM), 1.4; in test [3] (competitor 50 μM), 1.1; in test [3] (competitor 100 μM) it was 1.9. Moreover, the “SILAC ratio P4ha2” value in test [4] (competitor 10 μM) is 1.2; in test [4] (competitor 25 μM), 1.3; in test [4] (competitor 50 μM), 1.0; in test [4] (competitor 100 μM) it was 1.0. Besides, the “SILAC ratio Acad9” value in test [8] (competitor 10 μM) is given as 1.4; in test [8] (competitor 25 μM), 1.2; in test [8] (competitor 50 μM), 1.4; in test [8] (competitor 100 μM), 1.4. In addition, the “SILAC ratio Myh9” value in test [5] (competitor 10 μM) amounted to 1.2; in test [5] (competitor 25 μM) it was 1.3; in test [5] (competitor 50 μM), 1.2; in test [5] (competitor 100 μM) it was 1.6. For the same compound, the “SILAC ratio Atp5l” value in test [6] (competitor 10 μM) was 1.5; in test [6] (competitor 25 μM), 1.5; in test [6] (competitor 50 μM), 1.4; in test [6] (competitor 100 μM), 1.3. Also, the “SILAC ratio, Ccdc47” value in test [7] (competitor 10 μM) came to 1.4; in test [7] (competitor 25 μM), 1.8; in test [7] (competitor 50 μM), 1.9; in test [7] (competitor 100 μM), 3.1.
